Several values for one entry are separate records, joined by “and”; a condition that tells them apart may be missing. Equal values may be shown once.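 96-well plates; 48 h exposure; 5 concentrations. Endpoints by linear interpolation between flanking doses. Not reached: highest tested concentration assigned. GI50 = concentration required for 50% inhibition of growth. TGI: concentration producing complete growth inhibition.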

Common to all, as to assay: NCI anticancer screen, dose series, 48 h
Test [1] concerns HCC-2998 colon.
In test [2] the test system is HL-60(TB) leukemia.
For test [3], the system named is M14 melanoma.
In test [4] the test system is NCI-H23 lung.
The subject of test [5] is NCI-H460 lung.
For test [6], the system named is OVCAR-3 ovarian.
Test [7] relates to RPMI-8226 leukemia.
Test [8] has as its system SF-539 CNS.
Test [9] relates to SK-MEL-2 melanoma.
For test [10], the system named is SK-MEL-28 melanoma.
Test [11] deals with SN12C renal.
Test [12] concerns SNB-75 CNS.

Turning to `COc1ccc(/C=C2/N=C(N/N=C\C(O)C(O)C(O)CO)NC2=O)cc1` (stereo unspecified), the TGI was > 100 µM in [1]; > 100 µM in test [2]; > 100 µM in test [3]; > 100 µM in test [4]; > 100 µM in test [5]; > 100 µM and 67.8 µM in [6]. The TGI was > 100 µM in [7]; 40.1 µM in test [8]; > 100 µM in test [9]; > 100 µM in test [10]; > 100 µM in test [11]; > 100 µM in test [12]. Moreover, the GI50 is > 100 µM and 42.1 µM in [4]; > 100 µM and 24.3 µM in test [6]; > 100 µM and 31.3 µM in test [10]; > 100 µM and 41.4 µM in test [12].
Regarding `Cc1ccc2nc(N)[nH]c(=O)c2c1Sc1ccncc1`, the TGI in [1], in test [2], in test [3], in [4], in test [5] and in test [6] was > 100 µM in each case. Also, the TGI in test [7], in test [8], in test [9], in test [10], in test [11] and in test [12] was > 100 µM each time.
For `COC(=O)[C@H](CNC(=O)/C=C/c1ccc(OC(C)=O)c(OC(C)=O)c1)NC(=O)/C=C/c1ccc(OC(C)=O)c(OC(C)=O)c1`, the TGI in test [1], in test [2], in test [3], in test [4], in test [5] and in [6] was > 100 µM throughout. Also, the TGI in [7], in test [8], in test [9], in test [10], in test [11] and in [12] was > 100 µM each time.
Turning to `CC(C)C[S+]1C2=C([O-])CC(C)(C)CC2=Nc2ccccc21` (stereo unspecified), the TGI in test [1], in [2], in [3], in test [4], in test [5] and in test [6] was > 100 µM throughout. Further, the TGI in [7], in [8], in test [9], in test [10], in test [11] and in test [12] was > 100 µM throughout.
Regarding `O=C(O)c1cc(N=Nc2ccc([N+](=O)[O-])cc2)ccc1O`, the TGI in test [1] was 44.7 µM; in test [2], 73.7 µM; in test [3] it was > 100 µM; in test [4], > 100 µM; in test [5] it was 83 µM; in test [6], 39.8 µM. Moreover, the TGI in test [7] was 53.3 µM; in test [8], > 100 µM; in [9] it was 78.8 µM; in test [10], > 100 µM; in [11] it was > 100 µM; in test [12], > 100 µM.
Regarding `COc1ccc2c(c1)CC[C@@H]1[C@@H]2CC[C@]2(C)/C(=N/OCCN3CCCC3)CC[C@@H]12`, the TGI came to 3.49 µM in test [1]; 5.53 µM in test [2]; 2.64 µM in test [3]; 19.5 µM in [4]; 3.08 µM in test [5]; 16.2 µM in [6]. Further, the TGI in test [7] was 3.65 µM; in [8] it was 3.92 µM; in [9], 4.2 µM; in test [10] it was 2.82 µM; in test [11], 15.9 µM; in test [12], 9.49 µM.
`c1ccc(-c2cnc(SC(c3ccccc3)c3ccccc3)[nH]2)cc1`: the TGI was 35.8 µM in test [1]; 40.7 µM in test [2]; > 100 µM in test [3]; 52.5 µM in [4]; 46.8 µM in [5]; > 100 µM in test [6]. The TGI in test [7] is 48.5 µM; in [8] it was > 100 µM; in test [9], 53.2 µM; in [10], > 100 µM; in test [11], 65.4 µM; in test [12] it was > 100 µM.
For the compound `O=C1NC(=O)C(C(=O)C(=O)Nc2cc(Cl)ccc2Cl)C(=O)N1`, the TGI in [1], in [2], in test [3], in test [4], in test [5] and in test [6] was > 100 µM in each case. Also, the TGI in [7], in test [8], in test [9], in test [10] and in test [12] was > 100 µM each time.
Turning to `Cc1nc2cn3c(c2c(=O)[nH]1)CCCCC3`, the TGI in [1], in [2], in test [3], in [4], in test [5] and in [7] was > 100 µM in each case. Besides, the TGI in [8], in [9], in [10] and in test [12] was > 100 µM throughout.
For `COC(=O)C1OC(O[C@H]2CC[C@]3(C)[C@H]4CC=C5[C@@H]6CC(C)(C)CC[C@]6(C(=O)OC)CC[C@@]5(C)[C@]4(C)CC[C@H]3C2(C)C)C(O)C(O)C1O` (stereo partly specified), the TGI in test [1] stood at 20.3 µM; in [2], 36.7 µM; in test [3] it was 30 µM; in test [4], 32.4 µM; in test [5] it was 25.7 µM; in test [6], 15.5 µM. Besides, the TGI came to 51.7 µM in test [7]; 31.9 µM in [9]; 32.7 µM in test [10]; 26.8 µM in [11]; 31.1 µM in [12].
Consider `CN(C)c1ccc(/C=C/C(=O)c2cc(C(C)(C)C)c(O)c(C(C)(C)C)c2)cc1`, for which the TGI is 3.67 µM in test [1]; > 24.4 µM in test [2]; > 51.7 µM in test [3]; > 100 µM in test [4]; 2.39 µM in test [5]; 8.63 µM in test [7]. The TGI in test [8] is 1.8 µM; in [9] it was > 100 µM; in [10], > 100 µM; in test [11] it was > 38.7 µM; in test [12], 0.856 µM.

These data come from PubChem BioAssay (NCI).
